Data published in patent publication US20090253709A1 (NATIONAL DEFENSE MEDICAL CENTER, priority 2008, published 2009).

Columns and labels:
Experiment in all cases: In vitro cytotoxicity, Development Therapeutics Program
Assay type in all cases: cell-based
RPMI-8226 = conditions: RPMI-8226, leukemia; 1.0×10^−5 M
Source text: (§1) From the in vitro experiments of the Development Therapeutics Program of the Cancer Research Institute, the United States, it was known that the synthetic heterocyclic anthraquinone derivatives of the present invention have different inhibition levels to the different cancer cell lines under the concentration of 1.0×10^−5 M. Please refer to Table 2, which is the result of in vitro cytotoxicity of 2,7-disubstituted anthraquinone derivatives of the present invention.

MDA-MB-231/ATCC = conditions: breast cancer, 1.0×10^−5 M
Source text: as §1

SK-MEL-5 = conditions: SK-MEL-5, melanoma; 1.0×10^−5 M
Source text: as §1

SN12C = conditions: renal cancer, 1.0×10^−5 M
Source text: as §1

SR = conditions: leukemia, 1.0×10^−5 M
Source text: as §1

HCT-15 = conditions: HCT-15, colon cancer; 1.0×10^−5 M
Source text: as §1

HS 578T = conditions: breast cancer, 1.0×10^−5 M
Source text: as §1

KM12 = conditions: KM12, colon cancer; 1.0×10^−5 M
Source text: as §1

HL-60(TB) = conditions: leukemia, 1.0×10^−5 M
Source text: as §1

NCl-H322M = conditions: non-small cell lung cancer, 1.0×10^−5 M
Source text: as §1

MALME-3M = conditions: melanoma, 1.0×10^−5 M
Source text: as §1

T-47D = conditions: breast cancer, 1.0×10^−5 M
Source text: as §1

LOX IMVI = conditions: melanoma, 1.0×10^−5 M
Source text: as §1

SNB-75 = conditions: SNB-75, CNS cancer; 1.0×10^−5 M
Source text: as §1

NCI-H23 = conditions: NCI-H23, non-small cell lung cancer; 1.0×10^−5 M
Source text: as §1

HT29 = conditions: HT29, colon cancer; 1.0×10^−5 M
Source text: as §1

SF-268 = conditions: SF-268, CNS cancer; 1.0×10^−5 M
Source text: as §1

SF-539 = conditions: SF-539, CNS cancer; 1.0×10^−5 M
Source text: as §1

SK-OV-3 = conditions: SK-OV-3, ovarian cancer; 1.0×10^−5 M
Source text: as §1

DU-145 = conditions: DU-145, prostate cancer; 1.0×10^−5 M
Source text: as §1

UACC-257 = conditions: UACC-257, melanoma; 1.0×10^−5 M
Source text: as §1

ACHN = conditions: renal cancer, 1.0×10^−5 M
Source text: as §1

A498 = conditions: A498, renal cancer; 1.0×10^−5 M
Source text: as §1

SNB-19 = conditions: SNB-19, CNS cancer; 1.0×10^−5 M
Source text: as §1

MCF7 = conditions: MCF7, breast cancer; 1.0×10^−5 M
Source text: as §1

TK-10 = conditions: TK-10, renal cancer; 1.0×10^−5 M
Source text: as §1

HCC-2998 = conditions: HCC-2998, colon cancer; 1.0×10^−5 M
Source text: as §1

SK-MEL-28 = conditions: SK-MEL-28, melanoma; 1.0×10^−5 M
Source text: as §1

UO-31 = conditions: UO-31, renal cancer; 1.0×10^−5 M
Source text: as §1

NCl-H460 = conditions: NCl-H460, non-small cell lung cancer; 1.0×10^−5 M
Source text: as §1

COLO 205 = conditions: COLO 205, colon cancer; 1.0×10^−5 M
Source text: as §1

BT-549 = conditions: BT-549, breast cancer; 1.0×10^−5 M
Source text: as §1

NCl-H522 = conditions: NCl-H522, non-small cell lung cancer; 1.0×10^−5 M
Source text: as §1

PC-3 = conditions: PC-3, prostate cancer; 1.0×10^−5 M
Source text: as §1

SF-295 = conditions: SF-295, CNS cancer; 1.0×10^−5 M
Source text: as §1

M14 = conditions: M14, melanoma; 1.0×10^−5 M
Source text: as §1

CAK1-1 = conditions: CAK1-1, renal cancer; 1.0×10^−5 M
Source text: as §1

OVCAR-8 = conditions: OVCAR-8, ovarian cancer; 1.0×10^−5 M
Source text: as §1

EKVX = conditions: non-small cell lung cancer, 1.0×10^−5 M
Source text: as §1

SMILES	Cellular growth rate (%) (RPMI-8226)	Cellular growth rate (%) (MDA-MB-231/ATCC)	Cellular growth rate (%) (SK-MEL-5)	Cellular growth rate (%) (SN12C)	Cellular growth rate (%) (SR)	Cellular growth rate (%) (HCT-15)	Cellular growth rate (%) (HS 578T)	Cellular growth rate (%) (KM12)	Cellular growth rate (%) (HL-60(TB))	Cellular growth rate (%) (NCl-H322M)	Cellular growth rate (%) (MALME-3M)	Cellular growth rate (%) (T-47D)	Cellular growth rate (%) (LOX IMVI)	Cellular growth rate (%) (SNB-75)	Cellular growth rate (%) (NCI-H23)	Cellular growth rate (%) (HT29)	Cellular growth rate (%) (SF-268)	Cellular growth rate (%) (SF-539)	Cellular growth rate (%) (SK-OV-3)	Cellular growth rate (%) (DU-145)	also measured
O=C(CCN1CCCC1)Nc1ccc2c(c1)C(=O)c1cc(NC(=O)CCN3CCCC3)ccc1C2=O [Compound 18, 2,7-Bis[3-(pyrrolidino)propionamido]anthraquinone]	47.90	30.47	56.94	6.68	19.75	56.14	5.26	32.55	85.84	45.79	47.00	58.98	30.74	77.47	31.49	19.47	26.67	33.75	27.14	29.53	Cellular growth rate (%) (UACC-257): −17.88%; Cellular growth rate (%) (ACHN): 29.65%; Cellular growth rate (%) (A498): −0.91%; Cellular growth rate (%) (SNB-19): 66.97%; Cellular growth rate (%) (MCF7): 13.35%; Cellular growth rate (%) (TK-10): 31.22%; Cellular growth rate (%) (HCC-2998): 19.99%; Cellular growth rate (%) (SK-MEL-28): 14.99%; Cellular growth rate (%) (UO-31): 5.27%; Cellular growth rate (%) (NCl-H460): 25.52%; Cellular growth rate (%) (COLO 205): −29.04%; Cellular growth rate (%) (BT-549): 76.91%; Cellular growth rate (%) (NCl-H522): 29.16%; Cellular growth rate (%) (PC-3): 21.66%; Cellular growth rate (%) (SF-295): 48.62%; Cellular growth rate (%) (M14): 53.88%; Cellular growth rate (%) (CAK1-1): 55.55%; Cellular growth rate (%) (OVCAR-8): 19.58%; Cellular growth rate (%) (EKVX): 58.72%
CC(=O)Nc1ccc2c(c1)C(=O)c1cc(NC(C)=O)ccc1C2=O [Compound 26, 2,7-Bis(acetamido)anthraquinone]	121.47	103.99	108.87	113.35	3.61	93.93	133.05	105.94	38.74	97.50	111.26	96.17	99.05	106.91	94.24	107.23	113.68	103.04	101.12	116.79	Cellular growth rate (%) (UACC-257): 26.97%; Cellular growth rate (%) (ACHN): 96.93%; Cellular growth rate (%) (A498): 115.60%; Cellular growth rate (%) (SNB-19): 94.40%; Cellular growth rate (%) (MCF7): 96.90%; Cellular growth rate (%) (TK-10): 118.38%; Cellular growth rate (%) (HCC-2998): 105.35%; Cellular growth rate (%) (SK-MEL-28): 117.60%; Cellular growth rate (%) (UO-31): 96.42%; Cellular growth rate (%) (NCl-H460): 109.29%; Cellular growth rate (%) (COLO 205): 119.85%; Cellular growth rate (%) (BT-549): 93.29%; Cellular growth rate (%) (NCl-H522): 93.56%; Cellular growth rate (%) (PC-3): 102.73%; Cellular growth rate (%) (SF-295): 103.25%; Cellular growth rate (%) (M14): 105.11%; Cellular growth rate (%) (CAK1-1): 105.10%; Cellular growth rate (%) (OVCAR-8): 99.85%; Cellular growth rate (%) (EKVX): 95.28%
CN(C)CC(=O)Nc1ccc2c(c1)C(=O)c1cc(NC(=O)CN(C)C)ccc1C2=O [Compound 8, 2,7-Bis[2-(dimethylamino)acetamido]anthraquinone]	34.97	4.49	82.59	27.99	−46.45	16.26	−6.11	66.95	−64.97	32.42	96.21	24.62	−52.34	76.12	51.78	11.73	64.92	−3.72	70.26	78.68	Cellular growth rate (%) (UACC-257): −1.84%; Cellular growth rate (%) (ACHN): 66.43%; Cellular growth rate (%) (A498): −6.39%; Cellular growth rate (%) (SNB-19): 79.57%; Cellular growth rate (%) (MCF7): 7.92%; Cellular growth rate (%) (TK-10): 73.47%; Cellular growth rate (%) (HCC-2998): −73.97%; Cellular growth rate (%) (SK-MEL-28): 32.11%; Cellular growth rate (%) (UO-31): −82.55%; Cellular growth rate (%) (NCl-H460): 5.01%; Cellular growth rate (%) (COLO 205): −73.57%; Cellular growth rate (%) (BT-549): 85.36%; Cellular growth rate (%) (NCl-H522): 61.82%; Cellular growth rate (%) (PC-3): 59.00%; Cellular growth rate (%) (SF-295): −83.51%; Cellular growth rate (%) (M14): 75.04%; Cellular growth rate (%) (CAK1-1): 59.26%; Cellular growth rate (%) (OVCAR-8): 32.31%; Cellular growth rate (%) (EKVX): 102.30%
